Laboratory results taken from patent publication US20050239738A1, “Genetic inhibition of epidermal growth factor receptor function and carcinoma cell radiosensitization” (priority 2000, published 2005).
In brackets after ≈: the same amount, converted by molar mass.

Tests used:
Format in all cases: cell-based, human
EGFR-WT = EGFR-WT Tyr autophosphorylation, immunoprecipitation/Western blot; conditions: 2 ng/ml EGF, MDA-TR15-EGFR-CD533 cells without Dox
Experimental: (§1) Dox at 1 μg/ml was added 48 h prior to radiation exposure and cell harvesting with a medium change to RPMI/0.5% FBS with or without Dox for the final 24 h. This medium was replaced by RPMI/0.5% FBS 2 h prior to treatment.

MAPK = MAPK immune complex kinase assay
Experimental: as §1
(§2) Immunoprecipitation and Western analysis. For immunochemical analyses, cells frozen at −20° C. were lysed in ice-cold lysis buffer, 25 mM β-glycerophosphate, pH 7.4, 25 mM Tris, pH 7.4, 10% (v/v) glycerol, 1.5 mM EGTA, 0.5 mM EDTA, 1% Triton X-100, 1 mM Na-orthovanadate, 1 mM Na-pyrophosphate, 10 μg/ml aprotinin, 10 μg/ml leupeptin, 1 μm benzamidine, 100 μg/ml PMSF. […] Lysates were incubated with Ab at 4° C. for 3 h, the agarose-Ab immunoprecipitates were washed twice in lysis buffer, once in lysis buffer containing 0.1% Triton X-100, and once in 1× kinase buffer, 25 mM β-glycerophosphate, pH 7.4, 15 mm MgCl2. For Western blot analyses, equal amounts of cellular protein were separated by SDS-PAGE, electroblotted to nitrocellulose, probed with specific Abs against c-Jun protein and c-Jun 0phosphorylated at Ser-63, followed by chemilumescence detection. Expression of Tam 67 in MDA-TR15-EGFR-CD533 cells infected with recombinant adenovirus was determined by Western analysis using a c-Jun Ab specific for the COOH-terminus.
(§3) Immune complex kinase assays.
(§4) Aliquots of the assay mixture were placed on P81 paper and non-specific binding of [^32P]-γ-ATP removed by extensive washing in 180 mM phosphoric acid. Incorporation of ^32P into bound MBP substrate was measured by liquid scintillation spectroscopy (Beckman Instruments Inc, Schaumburg, Ill., USA).

[1] = test system: MDA-TR15-EGFR-CD533 cells; assay: Repeated radiation exposure (5 x 2 Gy) MTT cell growth assay
Experimental: MDA-TR15-EGFR-CD533 cells were seeded in RPMI/5% FBS at 1000 or 2000 cells/well in 96-well tissue culture plates for control and radiation experiments, respectively. After cell attachment overnight, 50% of the cultures were exposed to Dox at 1 μg/ml. Within 24 h of Dox exposure, drug-exposed and control cultures were irradiated once-daily with 2 Gy for 5 consecutive days.
Growth rate analysis. For irradiation and control conditions, 1000 and 500 cells per well of 24-well plates were seeded, respectively. Cells were maintained in RPMI/5FCS without media change throughout the period of the experiment. After 24 h of seeding, 50% of the plates were treated with 10 μM PD98059 for 2 h while negative controls were exposed to equivalent DMSO concentrations of 1 μl/ml in RPMI/5FCS. This was followed by 2 Gy daily radiation exposures for 5 consecutive days; control cells were sham irradiated. […] Growth rates were quantified relative to absorbance at 540 nm on day 1.

[2] = test system: MDA-TR15-EGFR-CD533 cells; assay: TUNEL assay for apoptosis
Experimental: TUNEL assay for apoptosis. Cells were placed at a density of 2×10^4 cells into dual well slides and allowed to adhere overnight in RPMI/5FCS. Cells were then exposed, prior to irradiation, for 48 h to Dox or control solute for induction of EGFR-CD533. PD98059 at a final concentration of 10 μM was added 2 h prior to irradiation at 2 Gy. Cells were infected with recombinant Ad-TAM67 for expression of Tam67 for 48 h prior to irradiation. […] Slides were stored at −20° C. until examination by fluorescence microscopy using a fluorescein filter.

c-Jun = assay: Western blot of c-Jun protein and Ser-63 phosphorylated c-Jun
Experimental: Immunoprecipitation and Western analysis. For immunochemical analyses, cells frozen at −20° C. were lysed in ice-cold lysis buffer, 25 mM β-glycerophosphate, pH 7.4, 25 mM Tris, pH 7.4, 10% (v/v) glycerol, 1.5 mM EGTA, 0.5 mM EDTA, 1% Triton X-100, 1 mM Na-orthovanadate, 1 mM Na-pyrophosphate, 10 μg/ml aprotinin, 10 μg/ml leupeptin, 1 μm benzamidine, 100 μg/ml PMSF. Insoluble material was removed by centrifugation at 14 000 g for 10 min, and the clarified protein lysates were divided equally for immunoprecipitation with antibodies against JNKI and MAPK using established techniques (Boulton et al., 1990). Lysates were incubated with Ab at 4° C. for 3 h, the agarose-Ab immunoprecipitates were washed twice in lysis buffer, once in lysis buffer containing 0.1% Triton X-100, and once in 1× kinase buffer, 25 mM β-glycerophosphate, pH 7.4, 15 mm MgCl2. For Western blot analyses, equal amounts of cellular protein were separated by SDS-PAGE, electroblotted to nitrocellulose, probed with specific Abs against c-Jun protein and c-Jun 0phosphorylated at Ser-63, followed by chemilumescence detection. Expression of Tam 67 in MDA-TR15-EGFR-CD533 cells infected with recombinant adenovirus was determined by Western analysis using a c-Jun Ab specific for the COOH-terminus.

JNK1 = JNK1 immune complex kinase assay
Experimental: as §2, §3, §4

EGFR-CD533 expression = assay: Doxycycline induction of EGFR-CD533 mRNA and protein (RNase protection, Northern, 35S-Met labeling)
Description: The kinetics of EGFR-CD533 induction and its decay after Dox removal were monitored by metabolic labeling with ^35S-Met as described in the text.

[3] = MDA-TR15-EGFR-CD533 cells, basal activity before irradiation, after pretreatment
[4] = parental MDA-TR15 cells, Dox 48 h
[5] = MCF-TR5-EGFR-CD533 cells, 48 h Dox exposure
[6] = MDA-TR15-EGFR-CD533 cells, 48 h Dox exposure

EGF: epidermal growth factor, natural ligand of EGFR
activation of EGFR-WT Tyr phosphorylation (EGFR-WT): 9.8 fold

COc1cccc(-c2cc(=O)c3ccccc3o2)c1N [PD98059]
inhibition of radiation-induced MAPK activation (MAPK; 10 μm PD98059 pretreatment, 2 Gy, MDA-TR15-EGFR-CD533 cells): > 70%
MAPK activity at time=0 (MAPK; [3]): 16900±575 c.p.m.
lower cell numbers on day 7 relative to irradiated control cells ([1]; 5 daily 2 Gy exposures, MTT, day 7 of growth period): 5.0 (±0.03) fold
inhibition of cell growth / decrease in cell numbers without irradiation ([1]; un-irradiated, day 7, MTT): 25%
apoptosis rate after irradiation ([2]; TUNEL 24 h after single 2 Gy): 6.3 (±0.1) %
basal apoptosis rate ([2]; TUNEL, without irradiation): 3.7 (±0.1) %
increase in basal apoptosis rate ([2]; TUNEL, without irradiation, relative to control): ~20%
c-Jun protein levels relative to untreated cells (c-Jun; 10 μM PD98059 2 h): more than twofold reduction
increase in c-Jun Ser-63 phosphorylation relative to c-Jun protein level (c-Jun; 10 μM PD98059 pretreatment, 10 min after 2 Gy): 41 fold
stimulation of c-Jun phosphorylation under MEK1/2 inhibition compared to radiation alone (c-Jun; PD98059 + 2 Gy, sustained up to 60 min): fivefold greater
transient activation of JNK1 without irradiation (JNK1; 10 μM PD98059, between 5 and 25 min, no radiation): 1.35 (±0.02) fold
radiation-induced immediate JNK1 activation (JNK1; 2 Gy, early time points (within 10 min), MDA-TR15-EGFR-CD533 cells): 3.9 (±0.1) fold
JNK1 activity at time=0 (JNK1; [3]): 3100±200 c.p.m.

C[C@H]1c2cccc(O)c2C(=O)C2=C(O)[C@]3(O)C(=O)C(C(N)=O)=C(O)[C@@H](N(C)C)[C@@H]3[C@@H](O)[C@@H]21 [Dox, doxycycline]
MAPK activity (MAPK; [4]): 16000±1600 c.p.m.
EGFR-CD533 induced (EGFR-CD533 expression; 1.0 μg/ml Dox, at 24 h, 35S-Met incorporation, MDA-TR15-EGFR-CD533 cells): > 90%
EC50 (EGFR-CD533 expression; Homo sapiens, MDA-TR15-EGFR-CD533 cells, 48 h exposure, 0.01-1.0 μg/ml, read-out: Dox concentration giving half maximal response of EGFR-CD533 induction): 0.1 µg/mL (≈ 0.225 µM)
increase in EGFR-CD533 mRNA levels (EGFR-CD533 expression; [5]): 5 fold
induction of the 110 kD EGFR-CD533 truncated receptor (EGFR-CD533 expression; [5]): greater than 20 fold
increase in EGFR-CD533 mRNA levels (EGFR-CD533 expression; [6]): greater than 30 fold
induction of EGFR-CD533 at the protein level (EGFR-CD533 expression; [6]): greater than 50 fold
JNK1 activity at time=0 (JNK1; [4]): 3500±300 c.p.m.
